Square brackets hold non-standard residues; d marks the D form. Peptide text beside a SMILES is read from it. * marks the point of attachment. ξ: configuration not given here. Pip = O=C(O)[C@@H]1CCCCN1; ξD = NC(CC(=O)O)C(=O)O; Bz = O=C(c1ccccc1)*; CH2F = FC* Some results are limits rather than exact numbers.

Format in all cases: cell-based
In test [1] the test system is caspase-8-mediated apoptotic pathway (Fas induced apoptosis). Kind of test: Anti-Fas induced apoptosis assay. An excerpt:
Cellular apoptosis can be induced by the binding of Fas ligand (FasL) to its receptor, CD95 (Fas). Conditions for an assay to measure the effect of compounds on the inhibition of the caspase-8-mediated apoptotic pathway can be found in WO01/42216.

In the next test the test system is TNF-alpha. Kind of test: Inhibition of TNF release from whole blood (LPS induced). The following applies: Homo sapiens, LPS 5 ng/ml, overnight, ELISA. As to the method: Human blood was freshly drawn from healthy donors and collected in vacutainers. Blood was diluted 1:2 in PBS (tissue culture, pyrogen free) in a sterile bottle and inverted to mix well. Aliquots of 0.5 ml of blood mixture were dispensed into cluster tubes in 96 well format.
Dilutions of the test compounds were prepared in RPMI by taking 100 mM DMSO stocks of the compounds and diluting 1:10 in RPMI medium in eppendorfs, to give a 10 mM stock. 1:5 serial dilutions were prepared from the stock solutions.
LPS was kept at a frozen stock (−20 degrees C.) at 1 mg/ml in PBS and then diluted to 1:10 with RPMI medium and finally diluted in the medium again 1:350. 50 μl of each test compound (first concentration was 100 μM) were added to the blood samples and then stimulated with 10 μl LPS (final concentration in the well is 5 ng/ml). The contents were gently mixed using an 8 well multi-channel pipette and incubated at 37° C. over night. At the end of the incubation time, contents were gently mixed, then spun down at 1000×g for 5 mins at 20° C. The serum supernatants were transferred to a fresh plate without disturbing the RBCs and diluted 1:2 with the diluent RD6C.
TNF-alpha levels of supernatants were assayed using the R+D systems ELISA kit, using R+D systems protocol. Samples were read at 450 nm.

Test [2] concerns IL-1β secretion from peripheral blood mononuclear cells. The test can be described thus: Inhibition of IL-1β secretion from mixed population of peripheral blood mononuclear cells (PBMC). The conditions noted are these: human PBMC, mature IL-1β in supernatant. An excerpt: Processing of pre-IL-1β by caspase-1 can be measured in cell culture using a variety of cell sources. Human PBMC obtained from healthy donors provides a mixed population of lymphocyte and mononuclear cells that produce a spectrum of interleukins and cytokines in response to many classes of physiological stimulators. The assay conditions used for inhibition of IL-1β secretion from mixed population of peripheral blood mononuclear cells can be found in WO01/42216.
The inhibitory potency of the compounds can be represented by an IC50 value, which is the concentration of inhibitor at which 50% of the mature IL-1β is detected in the supernatant as compared to the positive controls.

In test [1], `O=C(O)CC(NC(=O)[C@@H]1CCCCN1C(=O)c1ccccc1)C(=O)CF` (stereo partly drawn) [Compound 3, [3S/R,(2S)]-5-Fluoro-4-oxo-3-[1-benzoyl-2-piperidinecarboxamido]-pentanoic acid] (Bz-[Pip]-[ξD]-CH2F) displayed an IC50 below 0.05 µM.

For the molecule `O=C(O)CC(NC(=O)[C@@H]1CCCCN1C(=O)c1ccc(-c2cccc(C(F)(F)F)c2)o1)C(=O)CF` (stereo partly drawn) [Compound 10, [3S/R,(2S)]-5-Fluoro-4-oxo-3-[1-[2-(3-trifluoromethyl-phenyl)-furan-4-carbonyl]-2-piperidinecarboxamido]-pentanoic acid], the IC50 in the test on TNF-alpha (exact value in brackets) is 5.04 µM; with TNF-alpha (stated as bound), below 6 µM; in test [2], below 0.5 µM.

The record behind these values is patent publication US7807659B2, “Caspase inhibitors and uses thereof” (Vertex Pharmaceuticals Incorporated, priority 2001, dated 2010).
